{"source": "patent US5063242A", "about": "(priority 1990, dated 1991)", "tested_on": "carrageenan footpad edema in rats", "settings": "rat, in vivo, po, 5 mg/kg", "data": [{"smiles": "COc1ccc2c(c1)c(CC(=O)O)c(C)n2C(=O)c1ccc(Cl)cc1", "note": "[Indomethacin]", "values": [{"measurement": "% I", "result": 48, "unit": "%"}, {"measurement": "Delta Edema (x ± SEM)", "result": "40 ± 2.5"}]}]}
